Measurements from publication PMC4585971, “Functional Analyses of the Toxoplasma gondii DNA Gyrase Holoenzyme: A Janus Topoisomerase with Supercoiling and Decatenation Abilities” (Scientific Reports, 2015).

Legend:
[1] = molecular target: T1, EcGyrB (Escherichia coli, UniProt P0AES6); assay: native PAGE, nucleotide-induced dimerisation ([…] AMPPNP); format: binding
T1 construct: gene gyrB

[2] = system: Nc1ncnc2c1ncn2[C@@H]1O[C@H](COP(=O)(O)OP(=O)(O)OP(=O)(O)O)[C@@H](O)[C@H]1O; assay: purified protein; conditions: Mg2+

Row | Compound | native PAGE, nucleotide-induced dimerisation (4 mM AMPPNP) [1] | Km [2] [µM]
1 | Nc1ncnc2c1ncn2[C@@H]1O[C@H](CO[P@](=O)(O)O[P@](=O)(O)NP(=O)(O)O)[C@@H](O)[C@H]1O [AMPPNP] | This dimerisation pattern (monomer in the absence of nucleotide, dimer in the presence) is the same as for EcGyrB. | –
2 | EcGyrB (Escherichia coli K-12) | – | 540 ± 50
